Data from publication PMC2033742, “Comparison of ability of protein kinase C inhibitors to arrest cell growth and to alter cellular protein kinase C localisation” (British Journal of Cancer, 1995).
pIC50: −log10 of the molar value. Read-outs that look alike come from different tables or passages of the source.

Tests used:
cPKC-a = molecular target: T1, cPKC-a (Homo sapiens, UniProt P17252); test: Subcellular localisation of cPKC-alpha in A549 cells, Western blot of cellular fractions; assay type: cell-based
T1 construct: these three PKC isoenzymes are abundantly ex- pressed in A549 cells; endogenous in cells; host or cells: A549 human lung carcinoma cells
Protocol: (§1) Compounds with varying degrees of potency and specificity for PKC were investigated in A549 and MCF-7 carcinoma cells. […] To substantiate the role of PKC in the growth inhibition caused by these agents, cells were depleted of PKC by incubation with bryostatin 1 (1 jsM). […] The subcellular distribution of PKC-z-, -e and -< was measured by Western blot analysis. […] Cell growth Human A549 lung and MCF-7 breast carcinoma cells were obtained from the European Collection of Animal Cell Cul- tures (Salisbury, UK). Cells (passage number 10-30) were cultured in an atmosphere of 5% carbon dioxide, the former in Ham's F-12 medium with penicillin/streptomycin, the lat- ter in minimum essential medium (Eagle's modification) with additional pyruvate (1 mM) and non-essential amino acids. Both media were supplemented with 10% FCS (Imperial Laboratories Europe, Andover, UK, and Gibco) and gluta- mine (2 mM). Cells were subcultured routinely twice weekly to maintain logarithmic growth. For cell proliferation studies cells were seeded at a density of 1.3 x 104 cm-2 and incubat- ed with 3 ml of medium including agents, which was replen- ished at intervals of 48 h (A549) or 72 h (MCF-7). Following incubation for 4 days (A549) or 6 days (MCF-7) with drugs, cell number was assessed using a Coulter Counter Model ZM. […] Bryostatin was removed by extensive washing of the cells followed by a 2 h recovery period. […] In some experiments cells were incubated with inhibitor for 48 rather than 24 h, in this case bryostation was not removed and left in the incubate. […] Radioactivity was counted using a Packard 1500 Tricarb scintillation counter. […] The amount of protein loaded per lane was 20 tg for detection of cPKC-oc and 30 lg for nPKC-e. Detection was by enhanced chemi- luminescence generated by oxidation of luminol in the presence of hydrogen peroxide using an ECL kit from Amer- sham International.

[1] = test system: A549 lung carcinoma cells; test: Cell growth inhibition by cell counting (Coulter Counter), A549; assay type: cell-based, human
Protocol: as §1

nPKC-e = molecular target: T2, nPKC-e (Homo sapiens, UniProt Q02156); test: Subcellular localisation of nPKC-epsilon in A549 cells, Western blot of cytosolic, particulate and nuclear fractions
T2 sequence (Q02156 1-737): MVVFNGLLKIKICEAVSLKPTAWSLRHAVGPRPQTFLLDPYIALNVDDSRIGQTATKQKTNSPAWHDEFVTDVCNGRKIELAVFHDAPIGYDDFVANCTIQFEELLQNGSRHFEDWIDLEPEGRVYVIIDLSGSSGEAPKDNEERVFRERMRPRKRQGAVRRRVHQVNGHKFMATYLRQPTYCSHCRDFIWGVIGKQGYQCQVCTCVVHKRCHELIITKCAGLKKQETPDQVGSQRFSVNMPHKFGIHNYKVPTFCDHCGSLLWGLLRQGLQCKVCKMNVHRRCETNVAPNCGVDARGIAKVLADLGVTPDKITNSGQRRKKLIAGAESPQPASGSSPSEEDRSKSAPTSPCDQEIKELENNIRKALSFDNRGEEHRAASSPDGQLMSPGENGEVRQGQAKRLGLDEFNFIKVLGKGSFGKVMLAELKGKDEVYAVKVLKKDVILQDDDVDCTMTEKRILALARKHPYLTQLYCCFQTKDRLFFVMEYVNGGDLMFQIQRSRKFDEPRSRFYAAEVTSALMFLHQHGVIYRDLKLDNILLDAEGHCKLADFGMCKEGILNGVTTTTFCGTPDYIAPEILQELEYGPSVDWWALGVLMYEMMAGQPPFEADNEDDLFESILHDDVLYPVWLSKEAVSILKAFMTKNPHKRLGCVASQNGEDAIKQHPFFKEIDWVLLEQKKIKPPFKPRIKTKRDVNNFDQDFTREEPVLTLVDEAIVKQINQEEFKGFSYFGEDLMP
Protocol: as §1

PKC-depleted A549 cells = test: [3H]Tdr incorporation into PKC-depleted (bryostatin 1 pretreated) A549 cells; assay type: cell-based, human
Protocol: as §1

A549 cells = test: [3H]Tdr incorporation into control (naive) A549 cells; assay type: cell-based, human
Protocol: as §1

cPKC-a and nPKC-e = test: PKC down-regulation in A549 cells by bryostatin 1, Western blot; assay type: cell-based, human; conditions: bryostatin 1 at 1 (micromolar) for 24 h
Protocol: To substantiate the role of PKC in the growth inhibition caused by these agents, cells were depleted of PKC by incubation with bryostatin 1 (1 jsM). […] The subcellular distribution of PKC-z-, -e and -< was measured by Western blot analysis. […] Bryostatin was removed by extensive washing of the cells followed by a 2 h recovery period. […] In some experiments cells were incubated with inhibitor for 48 rather than 24 h, in this case bryostation was not removed and left in the incubate. […] The amount of protein loaded per lane was 20 tg for detection of cPKC-oc and 30 lg for nPKC-e. Detection was by enhanced chemi- luminescence generated by oxidation of luminol in the presence of hydrogen peroxide using an ECL kit from Amer- sham International.

[2] = test system: A549 lung carcinoma cells; parameters: method as in Dale and Gescher, 1989; Stanwell et al., 1994; conditions: 24 h with bryostatin 1 (1 micromolar); ref Dale and Gescher, 1989; Stanwell et al., 1994; cited from earlier work
[3] = phase I trials, ref Phillip et al., 1993, Prendiville et al.; cited from earlier work
[4] = A549 cells, 30 min, with TPA 25 nM, staurosporine effect not significant (P = 0.08)
[5] = Homo sapiens, A549, weaker enzyme inhibitors, read-out: concentrations which arrested growth
[6] = Homo sapiens, A549, read-out: IC50 for inhibition of [3H]Tdr incorporation
[7] = weaker enzyme inhibitors, read-out: concentrations which arrested growth
[8] = A549 and MCF-7 cells, read-out: IC50 values for growth arrest (stronger growth inhibitors)
[9] = PKC-depleted A549 cells (bryostatin 1 for 24 h, washed), 24 h with inhibitor, read-out: IC50 for inhibition of [3H]Tdr incorporation
[10] = control A549 cells, 24 h with inhibitor, read-out: IC50 for inhibition of [3H]Tdr incorporation

CO[C@@H]1[C@H](N(C)C(=O)c2ccccc2)C[C@H]2O[C@]1(C)n1c3ccccc3c3c4c(c5c6ccccc6n2c5c31)C(=O)NC4 [CGP 41251]
effect on TPA-induced cPKC-a redistribution (cPKC-a; [4]): failed to affect TPA-induced cPKC-a redistribution

COc1c(C[C@@H](C)OC(=O)Oc2ccc(O)cc2)c2c3c(C[C@@H](C)OC(=O)c4ccccc4)c(OC)c(=O)c4c(O)cc(OC)c(c5c(OC)cc(O)c(c1=O)c52)c43 [Calphostin C, calphostin C]
pIC50 ([1]; Homo sapiens, A549 and MCF-7 cells, read-out: IC50 values for growth arrest (stronger growth inhibitors)): > 6.00 | effect on TPA-induced cPKC-a redistribution (cPKC-a): failed to affect TPA-induced cPKC-a redistribution

CN(C)CCCn1cc(C2=C(c3c[nH]c4ccccc34)C(=O)NC2=O)c2ccccc21 [GF 109203X]
pIC50 ([1]; A549 and MCF-7 cells, read-out: IC50 for interference with cell growth): < 5.15 | effect on TPA-induced cPKC-a redistribution (cPKC-a): failed to affect TPA-induced cPKC-a redistribution | concentration which changed nPKC-e localisation significantly (nPKC-e): 0.1 pM

CC1CNCCN1S(=O)(=O)c1cccc2cnccc12 (stereo not drawn) [H-7, 1-(5-Isoquinolinesulfonyl)-2-methylpiperazine]
pIC50 [1, 5]: < 6.00 | pIC50 (PKC-depleted A549 cells; [6]): 4.70 | pIC50 (A549 cells; [6]): 4.49 | effect on TPA-induced cPKC-a redistribution (cPKC-a): failed to affect TPA-induced cPKC-a redistribution

CCCCCCCCCCCCCCCCOP(=O)([O-])OCC[N+](C)(C)C [Miltefosine, Hexadecylphosphocholine]
pIC50 [1, 5]: < 6.00 | effect on TPA-induced cPKC-a redistribution (cPKC-a; [4]): failed to affect TPA-induced cPKC-a redistribution

CCCCCCCCCCCCC(=O)N1CCCCC1CNC(=O)C(N)CCCCN (stereo not drawn) [NPC 15-437, 2,6-Diamino-N-([l-(1-oxotridecyl)-2-piperidinyl]methyl)hexanamide]
pIC50 [1, 7]: < 6.00

Cn1cc(C2=C(c3cn(CCCSC(=N)N)c4ccccc34)C(=O)NC2=O)c2ccccc21 [RO 31-8220]
pIC50 [1, 8]: > 6.00 | pIC50 (PKC-depleted A549 cells; [9]): 5.80 | pIC50 (A549 cells; [10]): 5.72 | effect on TPA-induced cPKC-a redistribution (cPKC-a): failed to affect TPA-induced cPKC-a redistribution | concentration which changed nPKC-e localisation significantly (nPKC-e): 0.1 pM

CN[C@@H]1C[C@H]2O[C@@](C)([C@@H]1OC)n1c3ccccc3c3c4c(c5c6ccccc6n2c5c31)C(=O)NC4 [Staurosporine, staurosporine]
pIC50 (A549 cells; [6]): 8.92

CCCCCCCCCCCCC/C=C/[C@@H](O)[C@H](CO)[N+](C)(C)C [TMS, trimethylsphingosine]
pIC50 [1, 7]: < 6.00

CN[C@@H]1C[C@H]2O[C@@](C)([C@@H]1OC)n1c3ccccc3c3c4c(c5c6ccccc6n2c5c31)C(=O)N[C@H]4O [UCN-01]
pIC50 [1, 8]: > 6.00 | pIC50 (PKC-depleted A549 cells; [9]): 7.33 | pIC50 (A549 cells; [10]): 7.17 | effect on TPA-induced cPKC-a redistribution (cPKC-a; [4]): behaved similarly | blots in which TPA-induced cPKC-a translocation was augmented (cPKC-a; A549 cells, UCN-01 at 1 (micromolar) with TPA 25 nM): three out of six | concentration required for translocation relative to IC50 for growth of A549 cells (nPKC-e; A549): 2- to 3 fold | concentration which changed nPKC-e localisation significantly (nPKC-e; A549 cells, 30 min, P<0.05 vs control): 0.1 pM

CCC/C=C/C=C/C(=O)O[C@H]1/C(=C/C(=O)OC)C[C@H]2C[C@H]([C@@H](C)O)OC(=O)C[C@H](O)C[C@@H]3C[C@H](OC(C)=O)C(C)(C)[C@](O)(C[C@@H]4C/C(=C/C(=O)OC)C[C@H](/C=C/C(C)(C)[C@]1(O)O2)O4)O3 [bryostatin 1]
down-regulation of cPKC-a and nPKC-e (cPKC-a and nPKC-e): completely down-regulated | growth inhibition under PKC depletion conditions [2]: negligible | dose-limiting toxicity [3]: myalgia
